How the values were obtained:
[1] = Average particle size (ζ-Average) and PDI by dynamic light scattering (Zetasizer Nano ZSP); assay type: physicochemical
Description: The average particle size (ζ-Average) and PDI in PBS(−) of lipid nanoparticles were measured using “Zetasizer Nano ZSP”, an analyzer utilizing dynamic light scattering (manufactured by Malvern).
Measurement of average particle size and PDI of the lipid nanoparticles were carried out with the same method as the measurement of average particle size of mRNA-LNP.
The average particle size (ζ-Average) and PDI in PBS (−) of lipid nanoparticles were measured using “Zetasizer Nano ZSP”, an analyzer utilizing dynamic light scattering (manufactured by Malvern).

[2] = siRNA/mRNA encapsulation rate by Ribogreen reagent (section IV); assay type: physicochemical; conditions: for % siRNA encapsulation: F7siRNA-loaded LNP, 50:10:38.5:1.5, N/P ratio 6; for % mRNA encapsulation: FlucmRNA-loaded LNP, 50:10:38.5:1.5
Description: The encapsulation rates of siRNA and mRNA of lipid nanoparticles were measured with Ribogreen reagent. A solution diluted with TE buffer solution was arranged so that lipid nanoparticle concentration as nucleic acid concentration to be 8 μg/mL, as a solution for measuring nanoparticle surface nucleic acid concentration. In addition, a solution for measuring total nucleic acid concentration was arranged so that lipid nanoparticle concentration as nucleic acid concentration to be 1.2 μg/mL, which is 1% (w/w) concentration of X-triton100, by adding X-triton100. For 100 μL of each solution, 100 μL of Ribogreen (registered trademark) reagent (Quant-iT™ RiboGreen™ RNA Reagent, manufactured by Thermofisher Scientific) was mixed well in the wells of 96-well microplate (black, made of polystyrene, flat bottom, manufactured by Corning), and the fluorescence intensity at an excitation wavelength of 485 nm and a measurement wavelength of 528 nm was measured with a microplate reader. Nucleic acid concentration was calculated by calibration curve created by measuring the fluorescence intensity of nucleic acid solution containing 1% X-triton100 (nucleic acid concentration: 0-2.5 μg/mL) as same as aforementioned. Nucleic acid encapsulation rate of each lipid nanoparticle was calculated by the following formula: Encapsulation rate %=(nucleic acid concentration in solution for measuring total nucleic acid concentration (μg/mL)−nucleic acid concentration in solution for measuring nanoparticle surface nucleic acid concentration (μg/mL))/nucleic acid concentration in solution for measuring total nucleic acid concentration (μg/mL)×100. <Results>
The encapsulation rate of mRNA of lipid nanoparticles was measured using Ribogreen (manufactured by life technologies).

[3] = system: liver; test: In vivo Fluc activity of FlucmRNA-loaded LNP by in vivo imaging, liver; conditions: Balb/c mice, 6 hours; for Fluc Activity in liver: FlucmRNA-loaded LNP i.v. 0.1 mg mRNA/kg; for Fluc activity in the liver, compared with CL15F6: 0.1 mg mRNA/kg, versus LNP comprising CL15F6 (Table 7)
Description: (§1) Then, each prepared FlucmRNA-loaded lipid nanoparticles were administered to Balb/c mice (Charles River Laboratories Japan, Inc., 7 weeks old, female) and in vivo gene expression activity was examined. Specifically, each FlucmRNA-loaded lipid nanoparticles were intravenously administered to Balb/c mice at 0.1 mg mRNA/kg, and Fluc activities in the liver and spleen at 6 hours later were measured. Fluc activity was measured by in vivo imaging system (Perkin Elmer, IVIS200) after administration of VivoGlo Luciferin, In Vivo Grade (Promega, P1041) dissolved with PBS to 15 mg/mL, via tail vein at a dose of 1.5 mg per mouse. The unit of Fluc activity is the emission intensity per unit area (Avg Radiance [p/s/cm2/sr]) at the maximum emission wavelength of about 560 nm. The results of measurement of the Fluc activity (Avg Radiance [p/s/cm2/sr]) in the liver and spleen of mice administered each FlucmRNA-loaded lipid nanoparticles are shown in Tables 5-7.

[4] = system: spleen; test: In vivo Fluc activity of FlucmRNA-loaded LNP by in vivo imaging, spleen; conditions: Balb/c mice, 6 hours; for Fluc Activity in spleen: FlucmRNA-loaded LNP i.v. 0.1 mg mRNA/kg; for Fluc activity in the spleen, compared with CL15F6: versus LNP comprising CL15F6 (Table 7)
Description: as §1

[5] = system: F7; test: In vivo F7 knockdown, plasma F7 enzyme activity (BIOPHEN FVII), Balb/c mice; conditions: for knockdown activity, compared with MC3: F7siRNA-loaded LNP, versus LNP comprising MC3; for F7 enzyme activity (Ratio using MC3 as 1): relative plasma F7 activity of MC3 LNP as 1
Description: Then, each prepared F7siRNA-loaded lipid nanoparticles were administered to Balb/c mice (Charles River Laboratories Japan, Inc., 5 weeks old, female) and in vivo F7 knockdown activity was examined. Specifically, BALB/c mice were intravenously administered F7siRNA-loaded lipid nanoparticles comprising the lipids described in Table 9 at 0.025 mg siRNA/kg and F7siRNA-loaded lipid nanoparticles comprising the lipids described in Tables 10 and 11 at 0.025 mg siRNA/kg, and the plasma F7 enzyme activity at 24 hours later was measured using BIOPHEN FVII (Biophen, A221304). Relative plasma F7 enzyme activity (%) of mice administered each F7siRNA-loaded lipid nanoparticles was calculated using plasma F7 enzyme activity of untreated mice as 100%. Furthermore, the ratio was calculated using the relative plasma F7 enzyme activity (%) of mice administered MC3-comprising F7siRNA-loaded lipid nanoparticles as 1. The results of measurement of CL4F6 derivative nanoparticles are shown in Tables 9 and 10, and results of measurement of CL15F6 derivative nanoparticles in Table 11.

[6] = Storage stability of FlucmRNA-loaded LNP at −80, 5, 25 and 40° C.; assay type: physicochemical; conditions: for period for which quality remained good, −80° C.: maximum storage period 1 week
Description: Lipid nanoparticles were allowed to stand at each temperature of −80° C., 5° C., 25° C., and 40° C., and after keeping for each period of time, average particle size, PDI, and nucleic acid encapsulation rate were measured. Lipid nanoparticles which satisfy following all three conditions were defined that the quality was remained well: the average particle size is maintained within +/−20 nm based on the date of LNP preparation; PDI remains high uniformity with a value of 0.2 or less; and the nucleic acid encapsulation rate is also maintained at 80% or more. As a result of measuring average particle size, PDI, and nucleic acid encapsulation rate after each FlucmRNA-loaded lipid nanoparticle was allowed to stand at −80° C., 5° C., 25° C., and 40° C. respectively and kept for each period of time, periods of time defined as the quality of the lipid nanoparticles was remained well are shown in Tables 13 and 14. The lipid nanoparticles which remain in good quality with standing at 5° C. for one week or more can be evaluated as having excellent stability.

[7] = F7siRNA-loaded LNP, 50:10:38.5:1.5, N/P ratio 6
[8] = FlucmRNA-loaded LNP, 50:10:38.5:1.5
[9] = FlucmRNA-loaded LNP, lipid:DSPC:cholesterol:DMG-PEG2K 50:10:38.5:1.5
[10] = i.v. 0.025 mg siRNA/kg, plasma at 24 hours

PDI [1, 7]	ζ-Average (nm) [1, 7]	PDI [1, 8]	ζ-Average (nm) [1, 9]	% siRNA encapsulation [2]	% mRNA encapsulation [2]	period for which quality remained good, −80° C. [6]	period for which quality remained good, 5° C. ([6]; maximum storage period 5 weeks)	period for which quality remained good, 25° C. ([6]; maximum storage period 5 weeks)	period for which quality remained good, 40° C. (days) ([6]; maximum storage period 5 weeks)	period for which quality remained good, 40° C. (weeks) ([6]; maximum storage period 5 weeks)	Structure (SMILES)	Fluc Activity in liver [3]	Fluc activity in the spleen, compared with CL4F6 ([4]; 0.1 mg mRNA/kg, versus LNP comprising CL4F6 (Tables 5 and 6))	Fluc Activity in spleen [4]	F7 enzyme activity (%) ([5]; i.v. 0.025 mg siRNA/kg, plasma at 24 hours, untreated mice as 100%)	Fluc activity in the liver, compared with CL15F6 [3]	Fluc activity in the spleen, compared with CL15F6 ([4]; 0.1 mg mRNA/kg)	knockdown activity, compared with MC3 [5]	F7 enzyme activity (Ratio using MC3 as 1) [5, 10]
0.022	114.40 nm	0.030	102.80 nm	99.9%	99.6%	1 week	5 weeks	5 weeks	0 day days		CCCCCCCC(CCC)C(=O)OCCCCCCC(O)(CCCCCCOC(=O)C(CCC)CCCCCCC)CCCCN(CCC)CCC (stereo not shown) [CL4F 9-3]	2.96E+07 Avg Radiance [p/s/cm2/sr]	higher Fluc activity	8.17E+06 Avg Radiance [p/s/cm2/sr]	11.7%				
0.025	101.2 nm	0.007	106.50 nm	100.3%	99.75%	1 week	5 weeks	5 weeks		5 weeks	CCCCCCCCCC(CCCCCC)C(=O)OCCCCCCC(O)(CCCCCCOC(=O)C(CCCCCC)CCCCCCCCC)CCCCOC(=O)C1CCN(C)CC1 (stereo not shown) [CL15F 11-6]	9.09E+06 Avg Radiance [p/s/cm2/sr]		8.19E+06 Avg Radiance [p/s/cm2/sr]		higher Fluc activity	higher Fluc activity	higher knockdown activity	0.81
0.049	102.5 nm	0.002	102.50 nm	100.6%	99.86%	1 week	5 weeks	5 weeks		5 weeks	CCCCCCCCCC(CCCCCCC)C(=O)OCCCCCCC(O)(CCCCCCOC(=O)C(CCCCCCC)CCCCCCCCC)CCCCOC(=O)C1CCN(C)CC1 (stereo not shown) [CL15F 11-7]	1.10E+07 Avg Radiance [p/s/cm2/sr]		7.13E+06 Avg Radiance [p/s/cm2/sr]		higher Fluc activity	higher Fluc activity	higher knockdown activity	0.85
0.065	113.2 nm	0.009	116.60 nm	100.2%	99.7%	1 week	5 weeks	5 weeks		5 weeks	CCCCCCCCCCC(CCCC)C(=O)OCCCCCCC(O)(CCCCCCOC(=O)C(CCCC)CCCCCCCCCC)CCCCOC(=O)C1CCN(C)CC1 (stereo not shown) [CL15F 12-4]	2.87E+06 Avg Radiance [p/s/cm2/sr]		5.10E+06 Avg Radiance [p/s/cm2/sr]				higher knockdown activity	0.81
0.088	122.5 nm	0.182	187.70 nm	99.0%	94.0%	0 week	0 weeks	0 weeks		0 weeks	CCCCCCCCCCCCCCC(C)C(=O)OCCCCCCC(O)(CCCCCCOC(=O)C(C)CCCCCCCCCCCCCC)CCCCOC(=O)C1CCN(C)CC1 (stereo not shown) [CL15F 16-1]	2.18E+05 Avg Radiance [p/s/cm2/sr]		1.27E+06 Avg Radiance [p/s/cm2/sr]					1.37

From US12458605B2, “Lipid nanoparticle” (National University Corporation Hokkaido University, priority 2020, dated 2025)
